Reference: PMC7887271, “Fast acting allosteric phosphofructokinase inhibitors block trypanosome glycolysis and cure acute African trypanosomiasis in mice” (Nature Communications, 2021)
“And” between values parts separate entries of the source, which are not always exact repeats. Identical values can stand only once. Like-named read-outs stand apart in the source and are kept apart here.

Columns and labels:
[1] = test system: T. b. brucei GVR35-VSL2; experiment: Mouse model of stage 1 and stage 2 HAT, bioluminescence imaging; format: in vivo, T. b. brucei in female CD-1 mice; conditions: for Side head bioluminescence - Total Flux: D23, individual mice, Supp_Fig13; for parasitaemia in brains of saline-perfused mice: stage 2, day 23, ex vivo; for bioluminescence signal in the body, stage 2 treatment: treatment from day 21
Text: An alternative mouse model for stage 1 (acute) and stage 2 (CNS-involved) HAT has been developed using a transgenic cell line derived from the pleiomorphic T. b. brucei GVR35 that expresses red-shifted firefly luciferase[17],[18]. […] T. b. brucei GVR35-infected mice present stage 1 disease by day 7 post infection with progression to stage 2 by day 21. By injecting the mouse with luciferin, the level of parasitaemia can be estimated in real time by monitoring the luminescence. Unlike monomorphic Lister 427 T. b. brucei, the pleiomorphic GVR35 T. b. brucei is controlled by a quorum-sensing mechanism resulting in the significant increase in survival time in mice and lower blood parasitaemia that occurs in waves. This extended survival time is also accompanied by parasite dissemination to multiple tissues and organs, including the skin, adipose tissue, lung and brain, with parasite loads increasing over time[17],[19].
For the mouse model of stage 1 and stage 2 HAT T. b. brucei GVR35-VSL2 parasites (3 × 10^4) were injected into a single donor female CD-1 mouse intraperitoneally. Once infection was established, starting on day 7 for stage 1 studies and day 21 for stage 2 studies, mice were either left untreated (n = 3) or dosed by oral gavage with CTCB compound in Cremophor EL: EtOH: D-PBS (30:10:60 v/v; n = 6). Progression of T. b. brucei GVR35-VSL2 infection was monitored primarily by in vivo bioluminescence imaging of infected mice using an IVIS Spectrum (PerkinElmer). For stage 1 studies, imaging of infected mice was performed before treatment on day 7 post infection and on days following the treatment (days 8, 9 and 14). Imaging on groups of three mice was performed 12 min after intraperitoneal injection of 150 mg kg^−1 D-luciferin (Promega) in PBS. For stage 2 studies, mice were imaged prior to treatment on day 21, and subsequently on days 22 and 23. On day 23, 24 h after the final dose, mice were sacrificed by cervical dislocation and perfused with PBS containing 15 g L^−1 glucose to allow ex vivo imaging of whole brains (Supplementary Figs. 12 and 13).
Female CD-1 (Charles River UK; 6-8 weeks old) mice were infected with 3 × 10^4 T. b. brucei GVR35-VSL2 bloodstream form parasites intraperitoneally. T. b. brucei GVR35-VSL2 expresses red-shifted luciferase and provides a better signal for imaging (13). Once infection was established, starting on day 7 for Stage 1 studies and day 21 for Stage 2 studies, mice were either left untreated (n=3) or dosed by oral gavage with CTCB compound in Cremophor EL: EtOH : D-PBS (30:10:60 v/v) (n = 6). Additional groups of mice (n=3) that received either a single intraperitoneal dose of diminazene aceturate (Sigma-Aldrich) at 40 mg/kg in sterile water or 0.1 ml melarsoprol gel (14) containing 3.6 mg melarsoprol, applied topically for 3 consecutive days, served as controls for Stage 1 and Stage 2 treatment studies, respectively.
Progression of T. b. brucei GVR35-VSL2 infection was monitored primarily by in vivo bioluminescence imaging of infected mice using an IVIS Spectrum (PerkinElmer) as described previously (5). For stage 1 studies, imaging of infected mice was performed before treatment on day 7 post-infection and in days following the treatment (days 8, 9 and 14). Imaging on groups of three mice was performed 12 minutes after intraperitoneal injection of 150 mg/kg D-luciferin (Promega) in PBS. For stage 2 studies, mice were imaged prior to treatment on day 21 and subsequently on days 22 and 23. On day 23, 24 hours after the final dose, mice were sacrificed by cervical dislocation and perfused with phosphate-buffered saline containing 15 g.L^−1 glucose to allow ex vivo imaging of whole brains. To this end, 100 μl D-luciferin was administered onto the brain surface and imaging performed immediately thereafter.

[2] = Mouse brain tissue binding; format: in vitro ADME; conditions: read-out: Mouse brain tissue binding fu (%)
[3] = Pharmacokinetic studies in mice (IV and PO); format: in vivo, female CD-1 mice; conditions: female, CD-1, plasma, mouse; for AUC(0-inf): read-out: AUC (infinity); for clearance: read-out: CL/kg (converted); for half-life: read-out: Elimination t1/2 (converted); for Vd: read-out: Vd (area); for bioavailability: PO 10 mg kg^−1 vs IV 1 mg kg^−1, read-out: Bioavailability (F%)
Procedure: PK parameters for the lead compounds were determined using three mice per data point (Supplementary Methods 6.1).
Blood samples were collected from terminal cardiac puncture at 0.08 (IV only), 0.25, 0.5, 1 (PO only), 2, 4, 8 and 24 hour time points. The whole blood was centrifuged to obtain plasma. Brains were also collected following cardiac perfusion from both sets of animals at 2 hours. Analysis of the biological samples was carried out by the company Selcia. Plasma proteins were precipitated by addition of PBS (1 volume) followed by 3 volumes of acetonitrile containing internal standard (verapamil). Following filtration through a protein precipitation plate the eluent was dried under nitrogen and re-suspended in mobile phase prior to analysis. Individual brains were homogenised in PBS and diluted to 10% w/v and divided into aliquots consisting of brain homogenate (1 volume, 0.3 ml) and 3 volumes (0.9 ml) of acetonitrile containing internal standard. Samples were centrifuged and supernatants removed and taken through a protein precipitation plate alongside an appropriate standard. Eluents were dried under nitrogen and re-suspended in mobile phase prior to analysis. Eluents were analysed by LC-MS/MS using a Phenomenex Gemini NX column (C18,30 x 2.1 mm, 3 micron). Analysis of the data was carried out using PK solutions software.

[4] = target: Human hERG (Homo sapiens, UniProt Q12809); experiment: Human hERG inhibition
Chain of Human hERG (Q12809 whole entry): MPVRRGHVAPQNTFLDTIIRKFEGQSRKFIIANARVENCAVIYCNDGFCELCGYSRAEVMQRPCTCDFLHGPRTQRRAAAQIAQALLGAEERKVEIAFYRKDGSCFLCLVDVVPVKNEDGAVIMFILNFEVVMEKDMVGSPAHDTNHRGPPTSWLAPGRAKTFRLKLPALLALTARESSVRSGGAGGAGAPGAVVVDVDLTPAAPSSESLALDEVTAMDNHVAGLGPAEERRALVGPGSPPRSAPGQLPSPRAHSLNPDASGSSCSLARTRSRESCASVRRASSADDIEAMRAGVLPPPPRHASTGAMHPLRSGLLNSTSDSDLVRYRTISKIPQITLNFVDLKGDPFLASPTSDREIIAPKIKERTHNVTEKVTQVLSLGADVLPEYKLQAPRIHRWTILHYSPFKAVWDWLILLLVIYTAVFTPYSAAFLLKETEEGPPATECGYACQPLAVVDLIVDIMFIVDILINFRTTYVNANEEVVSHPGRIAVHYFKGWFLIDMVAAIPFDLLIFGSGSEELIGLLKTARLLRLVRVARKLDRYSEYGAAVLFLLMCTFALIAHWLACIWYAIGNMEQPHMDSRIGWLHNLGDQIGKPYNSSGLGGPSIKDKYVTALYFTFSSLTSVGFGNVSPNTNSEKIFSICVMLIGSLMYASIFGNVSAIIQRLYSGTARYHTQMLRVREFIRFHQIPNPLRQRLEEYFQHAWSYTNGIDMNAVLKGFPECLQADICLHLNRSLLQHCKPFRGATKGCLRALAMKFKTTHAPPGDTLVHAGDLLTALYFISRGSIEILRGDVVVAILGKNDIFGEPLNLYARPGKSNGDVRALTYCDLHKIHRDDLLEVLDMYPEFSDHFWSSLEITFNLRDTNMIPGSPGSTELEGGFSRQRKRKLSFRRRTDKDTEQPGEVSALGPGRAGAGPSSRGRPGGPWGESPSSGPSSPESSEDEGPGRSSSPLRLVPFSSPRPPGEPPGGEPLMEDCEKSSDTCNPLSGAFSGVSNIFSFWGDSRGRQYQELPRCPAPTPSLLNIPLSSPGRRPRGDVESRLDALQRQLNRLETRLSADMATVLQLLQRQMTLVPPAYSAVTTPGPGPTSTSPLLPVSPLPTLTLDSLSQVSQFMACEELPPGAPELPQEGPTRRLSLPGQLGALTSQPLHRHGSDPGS
Text: Methods are described in Supplementary Methods 5 and 6. Enzyme assay results are means ± SD in multiple assays. ADME results are averages of n = 2 or 3 measurements in individual assays.

Structure (SMILES)	Side head bioluminescence - Total Flux [1]	parasitaemia in brains of saline-perfused mice [1]	bioluminescence signal in the body, stage 2 treatment [1]	fraction unbound [2]	AUC(0-inf) ([3]; IV 1 mg kg^−1)	clearance ([3]; IV 1 mg kg^−1)	half-life ([3]; IV 1 mg kg^−1)	Vd ([3]; IV 1 mg kg^−1)	Cmax ([3]; PO 10 mg kg^−1)	Tmax ([3]; PO 10 mg kg^−1)	AUC(0-inf) ([3]; PO 10 mg kg^−1)	bioavailability [3]	IC50 [4]
CN(C)CCn1ccc2c(ccn2Cc2ccc(Cl)c(Br)c2)c1=O [CTCB-470, 1-[(3-Bromo-4-chlorophenyl)methyl]-5-[2-(dimethylamino)ethyl] pyrrolo[3,2-c]pyridin-4-one]	1.100E+07 p/s and 7.724E+06 p/s and 5.606E+06 p/s and 1.306E+06 p/s and 2.050E+07 p/s and 2.702E+06 p/s	very clear reduction in parasitaemia	fast and significant signal reduction in the body	0.006	657 ng·h/mL	25 mL/min/kg	3.1 h	6.9 L/kg	393 ng/mL	0.5 h	1560 ng·h/mL	24%	1.69 µM
CN(C)CCn1ccc2c(ccn2Cc2ccc(F)c(Br)c2)c1=O [CTCB-508, 1-[(3-Bromo-4-fluorophenyl)methyl]-5-[2-(dimethylamino)ethyl] pyrrolo[3,2-c]pyridin-4-one]	7.338E+06 p/s and 1.920E+06 p/s and 5.353E+06 p/s and 4.553E+06 p/s and 1.258E+07 p/s and 2.035E+07 p/s	very clear reduction in parasitaemia	fast and significant signal reduction in the body	0.017	349 ng·h/mL	45 mL/min/kg	0.7 h	2.9 L/kg	1330 ng/mL	2 h	4170 ng·h/mL	119%	4.75 µM
